According to US20020061896A1, “Imidazopyrimidine nucleoside analogues with anti-HIV activity” (priority 1999, published 2002):
Structures can show the parent of a compound that is named as a salt. Where two headings read alike, the source gives them in different places.

Legend:
Type in all cases: cell-based
[1] = tested on: HIV; assay: Antiviral activity using T cells; settings: Human immunodeficiency virus 1, T-cell
Experimental: (§1) HIV-1 infection assays with cell lines.
(§2) Laboratory strains of HIV-1, HIV-2, simian immunodeficiency virus, strains with know resistance to indicated drugs, or a low-passage (clinically derived) isolates are used to infect established cell lines by using a specific multiplicity of infection (MOI) of the virus for 1 hour at 37° C. prior to washing the cells and resuspension in medium containing increasing concentrations of drug (or test compound). At 4 to 6 days post-infection, drug-treated and control wells are analyzed for an HIV-1 induced cytopathic effect and/or for the presence of viral reverse transcriptase (RT) or viral p24 antigen in the culture medium (Buckheit and Swanstrom 1991; Ojwang et al. 1994, 1995a, Rando et al. 1995).

[2] = Cytotoxicity using T cells
[3] = Cytotoxicity (table Antiviral Activity & Cytotoxicity); settings: established cell lines
[4] = tested on: HIV-1; assay: Antiviral activity (HIV-1 infection assays with cell lines); settings: Human immunodeficiency virus 1
Experimental: as §1, §2

[5] = tested on: HIV; assay: HIV infection of PBMCs; settings: Human immunodeficiency virus 1, PBMC, read-out: HIV IC50 (uM) PBMCs
Experimental: HIV-1 infection of PBMCs, CBMCs, and PBL.
(§3) Peripheral blood mononuclear cells (PBMCs), Core blood mononuclear cells (CBMCs) and peripheral blood lymphocytes (PBLs) are isolated from the blood of HIV-1 negative and hepatitis B virus-negative (healthy) donors by using the Ficoll-Hypaque density gradient centrifugation technique and are then cultured as described by Gartner and Popovic (1990).
PBMCs or CBMCs (2×10^5 cells/well) were infected with various isolates of HIV-1 at an MOI of 0.01. After 2 hours at 37C the cells are washed and treated with various concentrations of drug or test compound (Buckheit and Swanstrom 1991; Ojwang et al. 1995a). Seven days post-infection, HIV-1 replication was analyzed by the measuring the levels of RT or p24 in the culture medium.

[6] = Cytotoxicity in PBMCs; settings: human
Experimental: as §3

[7] = tested on: HIV; assay: HIV infection assay in cell lines (MT-2, MT-4, Jurkat)
Experimental: as §1, §2

[8] = Cytotoxicity in MT-2 cells; settings: human
[9] = antiviral activity, read-out: IC50
[10] = Human immunodeficiency virus 1, MT2, read-out: HIV IC50 (uM) MT-2
[11] = peripheral blood mononuclear cells (PBMCs), read-out: CC50 (uM) PBMCs

Structure (SMILES)	IC50 [1] [µM]	CC50 [2] [µM]	CC50 [3] [µM]	further results
O=c1n([C@@H]2CO[C@@H](CO)O2)cc(F)c2nc(-c3ccc([N+](=O)[O-])cc3)cn12 [Compound 58]	60	> 100	> 100	IC50 [4]: 60 µM
O=c1n([C@@H]2CC[C@H](CO)O2)cc(F)c2nc(-c3ccc(F)cc3)cn12 [Compound 33, 8-FLUORO-2-(4-FLUOROPHENYL)-6- [(5R,2S)-5-HYDROXYMETHYL OXOLAN- 2-YL]-5,6-DIHYDRO[1,3]DIAZOLO[1,2- C][1,3]DIAZIN-5-ONE]	4	90		
O=c1n([C@H]2CO[C@@H](CO)O2)ccc2nc(-c3ccc([N+](=O)[O-])cc3)cn12 [Compound 46, 2-(4-NITROPHENYL)-6-[(2R,4R)-2- HYDROXYMETHYL-1,3-DIOXOLAN-4-YL]- 5,6-DIHYDRO[1,3]DIAZOLO[1,2- C][1,3]DIAZIN-5-ONE]	0.1	> 100	> 100	IC50 [4, 9]: 0.1 µM
CC(C)[C@H](N)C(=O)OCC1OC[C@H](n2ccc3nc(-c4ccc(F)cc4)cn3c2=O)O1 (some centres unmarked) [Compound 60, 2-AMINO-3-METHYL-BUTYRIC ACID 4-[2- (4-FLUORO-PHENYL)-5-OXO-IMIDAZO [1,2-C]PYRIMIDIN-6-YL]-[1,3]DIOXOLAN-2- YLMETHYL ESTER; HYDROCHLORIDE SALT]				IC50 [5]: 0.6 µM; CC50 [6]: > 10 µM
O=c1n([C@H]2CO[C@@H](CO)O2)ccc2nc(-c3ccc(F)cc3)cn12 [Compound 44, 2-(4-FLUOROPHENYL)-6-[(2R,4R)-2- HYDROXYMETHYL-1,3-DIOXOLAN-4-YL]- 5,6-DIHYDRO[1,3]DIAZOLO[1,2- C][1,3]DIAZIN-5-ONE]	0.0032	> 100	> 100	IC50 [4, 9]: 0.003 µM
O=c1n([C@@H]2CO[C@H](CO)O2)cc(F)c2nc(-c3ccc([N+](=O)[O-])cc3)cn12 [Compound 49]				IC50 ([7]; Human immunodeficiency virus 1, Jurkat, read-out: HIV IC50 (uM) Jurkat): 0.24 µM; IC50 [7, 10]: 0.13 µM; IC50 ([7]; Human immunodeficiency virus 1, MT4, read-out: HIV IC50 (uM) (MT-4)): 0.015 µM; CC50 [8]: 6.5 µM; CC50 [6, 11]: < 10 µM; IC50 [4]: 0.005 µM
O=c1n([C@H]2CO[C@@H](CO)O2)cc(F)c2nc(-c3ccc(F)cc3)cn12 (stereo in doubt) [Compound 48]	0.026	> 100	> 100	IC50 [4, 9]: 0.026 µM
O=c1n([C@H]2CO[C@@H](CO)O2)cc(F)c2nc(-c3ccc([N+](=O)[O-])cc3)cn12 [Compound 50]	0.44	> 100	> 100	IC50 [7, 10]: 2.8 µM; CC50 [8]: > 10 µM; IC50 [4, 9]: 0.44 µM
O=c1n([C@H]2CO[C@@H](CO)O2)ccc2nc(-c3ccccc3)cn12 [Compound 62, 6-(2-HYDROXYMETHYL-[1,3]DIOXOLAN- 4-YL)-2-PHENYL-6H-IMIDAZO[1,2-C]PYRIMIDIN-5-ONE]				IC50 ([5]; PBMCs): 8 µM; CC50 [6, 11]: > 10 µM

Further lines, with some results ahead:

IC50 [1] [µM]	Structure (SMILES)	CC50 [2] [µM]	CC50 [3] [µM]	further results
7	O=c1n([C@H]2CC[C@@H](CO)O2)ccc2nc(-c3ccc([N+](=O)[O-])cc3)cn12 [Compound 32, 2-(4- NITROPHENYL)-6-[(2R,5S)-5- HYDROXYMETHYLOXOLAN-2-YL]-5,6- DIHYDRO[1,3]-DIAZOLO[1,2-C][1,3]DIAZIN-5-ONE]	> 100		
0.31	O=c1n(C2CO[C@H](CO)O2)ccc2nc(-c3ccc(F)cc3)cn12 (stereo in doubt) [Compound 43, 2-(4-FLUOROPHENYL)-6-[(2S,4S)-2- HYDROXYMETHYL-1,3-DIOXOLAN-4-YL]- 5,6-DIHYDRO[1,3]DIAZOLO[1,2- C][1,3]DIAZIN-5-ONE]	> 100		
0.25	O=c1n([C@@H]2CO[C@H](CO)O2)ccc2nc(-c3ccc([N+](=O)[O-])cc3)cn12 [Compound 45, L2-(4-NITROPHENYL)-6-[(2S,4S)-2- HYDROXYMETHYL-1,3-DIOXOLAN-4-YL]- 5,6-DIHYDRO[1,3]DIAZOLO[1,2- C][1,3]DIAZIN-5-ONE]	10		IC50 [7, 10]: 3 µM; CC50 [8]: 2 µM
0.4	O=c1n([C@H]2CO[C@H](CO)O2)ccc2nc(-c3ccc([N+](=O)[O-])cc3)cn12 [Compound 53]	> 10		
1	O=c1n([C@H]2CC[C@@H](CO)O2)cc(F)c2nc(-c3ccc([N+](=O)[O-])cc3)cn12 [Compound 36, 8-FLUORO-2-(4-NITROPHENYL)-6- [(2R,5S)-5-HYDROXYMETHYL OXOLAN- 2-YL]-5,6-DIHYDRO[1,3]-DIAZOLO[1,2- C][1,3]DIAZIN-5-ONE]	> 100		
9.7	O=c1n([C@@H]2CC[C@H](CO)O2)ccc2nc(-c3ccc([N+](=O)[O-])cc3)cn12 [Compound 31, 6-[(2S,5R)-5-HYDROXYMETHYL OXOLAN-2-YL]-2-(4-NITROPHENYL)-5,6- DIHYDRO[1,3]-DIAZOLO[1,2-C][1,3]DIAZIN-5-ONE]	45		
48	O=c1n([C@H]2CO[C@H](CO)O2)cc(F)c2nc(-c3ccc(F)cc3)cn12 [Compound 55]	> 100		
